Laboratory results reported in patent US20230142739A1, “PROTEIN-PROTEIN INTERACTION STABILIZERS” (The Regents of the University of California, priority 2020, published 2023).
Like-named read-outs stand apart in the source and are kept apart here. Non-standard residues stand in square brackets, D forms with d. Residues, ends and D or L forms follow the SMILES beside them. *: point of attachment. 5FAM = O=C1OC2(c3ccc(O)cc3Oc3cc(O)ccc32)c2ccc(C(=O)*)cc21; pT = C[C@@H](OP(=O)(O)O)[C@H](N)C(=O)O; pS = N[C@@H](COP(=O)(O)O)C(=O)O

Legend:
Type in all cases: binding
14-3-3σ(C42) = biological target: T1, 14-3-3σ(C42) (Homo sapiens, UniProt P31947, C38N/N42C); assay: Fluorescence anisotropy titration of 14-3-3σ(C42) to fluorescein-labeled partner peptides
T1 construct: with a truncated C-terminus after T231; His6 (N, cleaved yes); made in house; host or cells: E. coli NiCo21 (DE3), pPROEX HTb
T1 sequence (P31947 1-231 C38N/N42C): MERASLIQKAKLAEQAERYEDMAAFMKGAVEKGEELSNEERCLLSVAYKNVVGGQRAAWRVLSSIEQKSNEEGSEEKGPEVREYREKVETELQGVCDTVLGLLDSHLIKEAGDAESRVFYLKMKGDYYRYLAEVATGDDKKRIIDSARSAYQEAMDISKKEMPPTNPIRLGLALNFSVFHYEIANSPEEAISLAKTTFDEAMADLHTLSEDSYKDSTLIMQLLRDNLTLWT
Method: The 14-3-3/ER stabilizer FC (Fusicoccin) inhibits estradiol dependent signaling. FC (a natural product) inhibits dimerization of E2/ER and tamoxifen/ER. FC also blocks DNA binding and transcription (482) (PNAS May 28, 2013 110 (22) 8894-8899). Disulfide trapping for stabilizers of 14-3-3σ/ERα-pp (15-mer phosphopeptide representing the 14-3-3σ binding motif of ERα), was measured (J. Am. Chem. Soc. 2019, 141, 8, 3524-3531, FIG. 1b). Different cysteine residues yield different 14-3-3/client stabilizing chemical moieties. At each tethering residue, bound chemical moieties can be competitive with peptide, noncompetitive, or cooperative (J. Am. Chem. Soc. 2019, 141, 8, 3524-3531, FIG. 1c). […] 14-3-3σ (C42) expected mass: 26509 Da, βME capped mass: 26585 Da, protein-disulfide conjugate mass: 26795 Da. LC/MS dose response curves showing percentage of protein conjugate formation for titrations of disulfides to 14-3-3σ (C42) apo and bound to ERα-pp, were measured. […] LC/MS dose response curves showing percentage of protein conjugate formation for titrations of disulfides to 14-3-3σ (C42) apo and bound to ERα-pp, were measured. […] Dose-response curve of Fragment 1, which induces ERα binding, were measured (J. Am. Chem. Soc. 2019, 141, 8, 3524-3531, FIG. 2a-2b, supporting information). Small molecules stabilize 14-3-3σ/Erα-pp binding. […] Schematic of experimental design and Plot of anisotropy (mean+SD) for titrations of Frag001, Frag002, FC-A (natural product fusicoccane-A), or DMSO control to fluorescein-Erα-pp and 1 μM 14-3-3σ (C42) (J. Am. Chem. Soc. 2019, 141, 8, 3524-3531, FIG. 3a-3b). Dose-response curves were obtained by MS by analyzing % tethering for titrations of Fragment 2 to 14-3-3σ apo (− peptide;) or bound to different interaction partner-derived peptide motifs; ERα-pp ( ), TASK3-pp ( ), ExoS ( ) or TAZ-pp ( ), starting from 1 mM (J. Am. Chem. Soc. 2019, 141, 8, 3524-3531, FIG. 4b). LC/MS screening data of hits for 14-3-3σ (C42)+/−ERα-pp was collected. The deconvoluted LC/MS spectra of disulfide fragments bound to 14-3-3σ (C42) alone or in complex with ERα-pp were determined with 14-3-3σ (C42) expected mass: 26509 Da, βME capped mass: 26585 Da, protein-disulfide conjugate mass: between 26752-26919 Da. Fragments bound preferentially in the presence of ERα-pp: 959996 (1), 916971, and 917137 were termed ‘cooperative’. […] Fluorescence anisotropy (r) of fluorescein-ERα-pp versus concentration of 6 or FC-A binding to 14-3-3σ(C42) or 14-3-3σ(C45) was tested. […]
Fluorescence Anisotropy. […] Fluorescence anisotropy measurements were performed directly and after overnight incubation at room-temperature, using a Tecan Infinite F500 plate reader (filter set λex: 485±20 nm, λem: 535±25 nm). […]

Pin1_72/14-3-3γ = biological target: T2, Pin1_72/14-3-3γ (Homo sapiens, UniProt P61981+Q13526); assay: Fluorescence anisotropy protein titration, Pin1_72/14-3-3γ at constant compound; settings: based on internal DMSO control and 100 μM fragment
T2 construct: the full length 14-3-3γ was dialysis against 25 mM HEPES pH 7.5; made in house; host or cells: E. coli BL21(DE3), pPROEX HTb
Source text: Inspired by the binding poses of 3 and 9 we combined their structural features to improve stabilization. […] In case of complex stabilization, a left shift of apparent KD values is expected, here described as stabilization factors (SF).
(§1) Fluorescence Anisotropy (FA) Assays.

Pin1_72/14-3-3 complex = biological target: T3, Pin1_72/14-3-3 complex (Homo sapiens, UniProt P61981); assay: Fluorescence anisotropy compound titration, Pin1_72/14-3-3 (CC50)
T3 construct: the full length 14-3-3γ was dialysis against 25 mM HEPES pH 7.5; made in house; host or cells: E. coli BL21(DE3), pPROEX HTb
T3 sequence (P61981 1-247): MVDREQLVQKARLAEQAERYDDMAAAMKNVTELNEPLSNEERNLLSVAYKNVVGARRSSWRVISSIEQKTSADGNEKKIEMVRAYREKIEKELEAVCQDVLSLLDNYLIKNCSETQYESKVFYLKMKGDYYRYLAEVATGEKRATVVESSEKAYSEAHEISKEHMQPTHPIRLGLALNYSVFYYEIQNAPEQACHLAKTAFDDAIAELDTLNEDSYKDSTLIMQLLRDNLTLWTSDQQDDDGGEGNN
Method: Site-Directed Shift base fragment Screening. […] As measure of activity the inflection point of the curve was determined, representing the half-maximum complex formation (CC50).
as §1

14-3-3/Pin1_72 complex = biological target: T4, 14-3-3/Pin1_72 complex (Homo sapiens, UniProt P61981); assay: Cooperativity analysis, 14-3-3 titrations at varied constant fragment concentration
T4 construct: the full length 14-3-3γ was dialysis against 25 mM HEPES pH 7.5; made in house; host or cells: E. coli BL21(DE3), pPROEX HTb
Source text: Cooperativity in ternary complex formation. In contrast to PPI inhibition, where affinity to one of the protein pockets is the driving force for drug development, design of molecular glues is driven by cooperative ternary complex formation. Both CC50 and SF values are concentration dependent values and might differ based on assay design. […] Cooperative complex formation is often accompanied by structural changes of the interface of a complex which translates to increased stability of the ternary com-plex. In order to assess cooperativity of the ternary complex, fragments 13, 23, 27 and 28 were selected for cooper-activity analysis. The α-factor of the fragments were determined using 14-3-3 titrations in the presence of varied, but constant concentration of fragment in a dose-dependent manner. […] Further, the interval of change in stabilization further describes the systems cooperative behaviour.
However, at higher concentration regimes significant assay interference was observed, probably due to compound aggregation. Fragments 23, 27 and 28 all reached saturation or approached saturation enabling accurate determination of α-factor. […] KD remains constant also at higher concentrations of FC-A, indicating non-specific effects.

[1] = biological target: T5, 14-3-3σ(C42)/ERα-pp complex (Homo sapiens, UniProt P31947, C38N/N42C); assay: Disulfide tethering primary screen, intact protein LC/MS, protein-peptide complex
T5 construct: with a truncated C-terminus after T231; His6 (N, cleaved yes); made in house; host or cells: E. coli NiCo21 (DE3), pPROEX HTb
Method: Apo-14-3-3σ or the 14-3-3σ/ERα-pp complex was screened against a 1600-member disulfide library under mildly reducing conditions (100 μM betamercaptoethanol; βME). Conjugate formation for each individual reaction was analyzed by intact protein MS. Three peaks observed in mass spectra corresponded to apo, βME-capped, and fragment-conjugated 14-3-3σ. The ‘percent tethering’, defined as the intensity of the fragment-specific conjugate protein peak divided by the sum of the intensities for all protein peaks, was calculated for each individual experiment using an automated pipeline. (492)
Disulfide Tethering screening and data processing. The primary screening was performed by incubating the target with individual compounds in a 384-well plate format. A custom library of 1600 disulfide-containing fragments of the UCSF Small Molecule Discovery Center (SMDC), synthesized as previously reported, was available as 50 mM stock solutions in DMSO. (496, 497) For screening, 14-3-3σ wild-type and Cys-mutants were diluted to 100 nM in buffer (10 mM Tris, 100 μM betamercaptoethanol (βME), pH 8.0) and plated in 384-well plates (15 μL/well). 30 nL of each fragment was pinned from the library master plates into the protein samples using a Biomek FX (Beckman) to give a final concentration of 100 μM. The duplicate experiments additionally contained 200 nM ERα-pp. The reaction mixtures were incubated for 3 hours at RT before being subjected to LC/MS (I-class Acquity UPLC/Xevo G2-XS Quadrupole Time of Flight mass spectrometer, Waters). Data collection and automated processing followed a custom workflow, as previously described. (492) All compounds described in the text were from the same lot as the original screening material.

With `CC[C@H](C)[C@H](NC(=O)[C@H](Cc1ccc(O)cc1)NC(=O)[C@H](Cc1ccc(O)cc1)NC(=O)[C@H](CCCCN)NC(C)=O)C(=O)N[C@H](C(=O)NCC(=O)N[C@@H](CCC(=O)O)C(=O)N[C@@H](C)C(=O)N[C@@H](CCC(=O)O)C(=O)NCC(=O)N[C@@H](Cc1ccccc1)C(=O)N1CCC[C@H]1C(=O)N[C@@H](C)C(=O)N[C@H](C(=O)N[C@H](C(=O)O)C(C)C)[C@@H](C)OP(=O)(O)O)[C@@H](C)O` [ERα-pp] (Ac-KYYITGEAEGFPA[pT]V-OH) the EC50 (14-3-3σ(C42)) was 300 nM.

`CC(C)C[C@H](NC(=O)CNC(=O)[C@H](CCC(N)=O)NC(=O)CNC(=O)[C@H](Cc1c[nH]cn1)NC(=O)CNC(=O)[C@H](CO)NC(=O)c1ccc2c(c1)C(=O)OC21c2ccc(O)cc2Oc2cc(O)ccc21)C(=O)N[C@@H](CC(C)C)C(=O)N[C@@H](CC(=O)O)C(=O)N[C@@H](C)C(=O)N[C@@H](CC(C)C)C(=O)N[C@@H](CC(=O)O)C(=O)N[C@@H](CC(C)C)C(=O)N[C@@H](C)C(=O)N[C@@H](CO)C(N)=O` [ExoS] showed an EC50 (14-3-3σ(C42)) of 11100 nM.

With `O=Cc1ccc(-n2ccnc2)c(Cl)c1` [L2] the “SF (fold stabilization)” value (Pin1_72/14-3-3γ) was 0.8 and the “activity in FA assay” value (Pin1_72/14-3-3 complex) was “significant complex formation”.

`CC(C)[C@H](NC(=O)[C@H](COP(=O)(O)O)NC(=O)[C@H](CCCCN)NC(=O)[C@H](CCCNC(=N)N)NC(=O)[C@H](CCCNC(=N)N)NC(=O)c1ccc2c(c1)C(=O)OC21c2ccc(O)cc2Oc2cc(O)ccc21)C(=O)O` [TASK3-pp, KRRKpS^373V-OH] (5FAM-RRK[pS]V-OH) was tested, and the EC50 (14-3-3σ(C42); fluorescein-labeled peptide) was 200 nM.

`CC(C)C[C@H](NC(=O)[C@H](CCC(N)=O)NC(=O)[C@H](CC(C)C)NC(=O)[C@H](CO)NC(=O)[C@H](C)NC(=O)[C@@H]1CCCN1C(=O)[C@H](CO)NC(=O)[C@H](COP(=O)(O)O)NC(=O)[C@H](Cc1c[nH]cn1)NC(=O)[C@H](CO)NC(=O)[C@H](CCCNC(=N)N)NC(=O)c1ccc2c(c1)C(=O)OC21c2ccc(O)cc2Oc2cc(O)ccc21)C(=O)NCC(=O)N[C@H](C(N)=O)[C@@H](C)O` [TAZ-pp, RSHpS^89SPASLQ] (5FAM-RSH[pS]SPASLQLGT-NH2) gave an EC50 (14-3-3σ(C42); fluorescein-labeled peptide) of 2200 nM.

With `O=Cc1ccc(-n2ccnc2-c2ccccc2Br)cc1Br` [compound 23, 2-bromo-4-(2-(2-bromophenyl)-1H-imidazol-1-yl)benzaldehyde] the “SF (fold stabilization)” value (Pin1_72/14-3-3γ) was 18.9 and the “cooperativity factor (α-factor)” value (14-3-3/Pin1_72 complex) was “approximately 60”.

For `O=Cc1ccc(-n2ccnc2-c2ccc(O)cc2)cc1Br` [compound 25, 2-bromo-4-(2-(4-hydroxyphenyl)-1H-imidazol-1-yl)benzaldehyde], the “activity in FA assay” value (Pin1_72/14-3-3 complex) was “limited effect”.

In the case of `O=Cc1ccc(-n2ccnc2-c2cccnc2)cc1Br` [compound 26, 2-bromo-4-(2-(pyridin-3-yl)-1H-imidazol-1-yl)benzaldehyde], the “SF (fold stabilization)” value (Pin1_72/14-3-3γ) is reported as 2.27 and the “activity in FA assay” value (Pin1_72/14-3-3 complex) is reported as “limited effect”.

With `NCCSSCCCC(=O)NCC(c1ccccc1)c1ccccc1` [compound 916971] the “hit category (binding in presence vs absence of ERα-pp)” value [1] was “cooperative”.

In the case of `CN(C)CCSSCCNC(=O)c1ccccc1Sc1ccccc1C#N` [compound 917137], the “hit category (binding in presence vs absence of ERα-pp)” value [1] is reported as “cooperative”.

`CN(C)CCSSCCNC(=O)C1CCN(C(=O)c2ccccc2NC(=O)c2ccccc2)CC1` [compound 917805] was tested, and the “hit category (binding in presence vs absence of ERα-pp)” value [1] was “neutral”.

With `CN(C)CCSSCCn1cc(CN2C(=O)C(=O)c3ccccc32)nn1` [compound 957838] the “hit category (binding in presence vs absence of ERα-pp)” value [1] was “neutral”.
